Format in all cases: biochemical
The target in test [1] is T1, α-Glucosidase (rice) (Oryza sativa subsp. japonica, UniProt Q653V7).
T1 construct: purchased Sigma-Aldrich Co
As to the kind of experiment: Glycosidase inhibition: α-glucosidase (rice). Conditions: read-out: inhibition % at 1000 μM. The text has this:
(§1) The enzymes α-glucosidase (from yeast, rice), β-glucosidase (from almonds, bovine liver), α-galactosidase (from coffee beans), β-galactosidase (from bovine liver), α-mannosidase (from jack beans), β-mannosidase (from snails), α-L-fucosidase (from bovine kidney), α-L-rhamnosidase (from Penicillium decumbens), β-glucuronidases (from Escherichia coli), α,α-trehalase (from porcine kidney), amyloglucosidase (from Aspergillus niger), p-nitrophenyl glycosides, and various disaccharides were purchased from Sigma-Aldrich Co. Brush border membranes were prepared from the rat small intestine according to the method of Kessler et al., and were assayed at pH 6.8 for rat intestinal maltase using maltose. For rat intestinal glucosidases and porcine kidney trehalase activities, the reaction mixture (0.2 mL) contained 25 mM substrate and the appropriate amount of enzyme, and the incubations were performed for 10 min at 37 °C. The reaction was stopped by heating at 100 °C for 3 min. After centrifugation (600 g; 10 min), 0.035 mL of the resulting reaction mixture were added to 2.1 mL of the Glucose CII-test Wako (Wako Pure Chemical Ind., Osaka, Japan). The absorbance at 505 nm was measured to determine the amount of the released D-glucose. Other glycosidase activities were determined using an appropriate p-nitrophenyl glycoside as substrate at the optimum pH of each enzyme. The reaction mixture (0.2 mL) contained 2 mM of the substrate and the appropriate amount of enzyme. The reaction was stopped by adding 0.4 mL of 400 mM Na2CO3. The released p-nitrophenol was measured spectrometrically at 400 nm.

Test [2] concerns β-Glucosidase (almond). In words: Glycosidase inhibition: β-glucosidase (almond). Conditions: 1000 μM.
Description: as §1

The target in test [3] is T2, β-Glucosidase (bovine liver) (Bos taurus, UniProt F1MNT6).
T2 sequence (F1MNT6 1-469): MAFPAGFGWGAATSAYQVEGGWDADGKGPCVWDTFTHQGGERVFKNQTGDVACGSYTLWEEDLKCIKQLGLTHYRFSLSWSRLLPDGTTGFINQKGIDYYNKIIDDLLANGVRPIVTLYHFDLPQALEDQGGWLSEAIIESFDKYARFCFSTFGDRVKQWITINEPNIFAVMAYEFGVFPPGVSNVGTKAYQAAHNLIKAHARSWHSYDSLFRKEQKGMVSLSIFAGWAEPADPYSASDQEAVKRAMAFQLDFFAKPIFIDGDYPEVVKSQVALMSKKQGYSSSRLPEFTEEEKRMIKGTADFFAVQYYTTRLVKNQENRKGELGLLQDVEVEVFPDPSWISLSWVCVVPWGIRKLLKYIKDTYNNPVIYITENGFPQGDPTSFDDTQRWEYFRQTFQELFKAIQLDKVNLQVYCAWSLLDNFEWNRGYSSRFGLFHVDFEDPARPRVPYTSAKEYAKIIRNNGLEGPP
In words: Glycosidase inhibition: β-glucosidase (bovine liver).
Description: as §1, with “After centrifugation (600 g; 10 min), 0.035 mL of the resulting reaction mixture were added to 2.1 mL of the Glucose CII-test Wako (Wako Pure Chemical Ind., Osaka, Japan).” left out, “The reaction mixture (0.2 mL) contained 2 mM of the substrate and the appropriate amount of enzyme. The reaction was stopped by adding 0.4 mL of 400 mM Na2CO3.” left out

Test [4] addresses T3, α-Galactosidase (coffee beans) (Coffea arabica, UniProt Q42656).
T3 construct: purchased Sigma-Aldrich Co
In words: Glycosidase inhibition: α-galactosidase (coffee beans). Conditions: read-out: inhibition % at 1000 μM.
Description: as §1

Test [5] addresses T4, α-L-Fucosidase (bovine kidney) (Bos taurus, UniProt Q2KIM0).
T4 construct: purchased Sigma-Aldrich Co; host or cells: bovine kidney
T4 sequence (Q2KIM0 23-468): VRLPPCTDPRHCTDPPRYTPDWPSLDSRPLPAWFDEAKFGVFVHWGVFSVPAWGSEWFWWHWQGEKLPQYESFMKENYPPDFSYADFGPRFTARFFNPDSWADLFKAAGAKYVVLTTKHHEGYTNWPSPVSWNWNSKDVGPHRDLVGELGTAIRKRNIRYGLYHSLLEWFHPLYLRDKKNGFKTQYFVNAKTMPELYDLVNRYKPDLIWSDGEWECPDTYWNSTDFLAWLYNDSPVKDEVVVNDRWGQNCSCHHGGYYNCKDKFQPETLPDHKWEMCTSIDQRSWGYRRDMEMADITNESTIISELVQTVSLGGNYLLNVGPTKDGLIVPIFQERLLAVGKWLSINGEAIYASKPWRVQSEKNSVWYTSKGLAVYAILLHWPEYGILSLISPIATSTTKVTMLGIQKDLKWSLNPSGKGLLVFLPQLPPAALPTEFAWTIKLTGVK
As to the kind of experiment: Glycosidase inhibition: α-L-fucosidase (bovine kidney). Conditions: read-out: inhibition % at 1000 μM.
Description: as §1

The target in test [6] is α-L-Rhamnosidase (Penicillium decumbens, UniProt S7ZS15). As to the kind of experiment: Glycosidase inhibition: α-L-rhamnosidase (Penicillium decumbens).
Sequence of α-L-Rhamnosidase (S7ZS15 entry or part of it): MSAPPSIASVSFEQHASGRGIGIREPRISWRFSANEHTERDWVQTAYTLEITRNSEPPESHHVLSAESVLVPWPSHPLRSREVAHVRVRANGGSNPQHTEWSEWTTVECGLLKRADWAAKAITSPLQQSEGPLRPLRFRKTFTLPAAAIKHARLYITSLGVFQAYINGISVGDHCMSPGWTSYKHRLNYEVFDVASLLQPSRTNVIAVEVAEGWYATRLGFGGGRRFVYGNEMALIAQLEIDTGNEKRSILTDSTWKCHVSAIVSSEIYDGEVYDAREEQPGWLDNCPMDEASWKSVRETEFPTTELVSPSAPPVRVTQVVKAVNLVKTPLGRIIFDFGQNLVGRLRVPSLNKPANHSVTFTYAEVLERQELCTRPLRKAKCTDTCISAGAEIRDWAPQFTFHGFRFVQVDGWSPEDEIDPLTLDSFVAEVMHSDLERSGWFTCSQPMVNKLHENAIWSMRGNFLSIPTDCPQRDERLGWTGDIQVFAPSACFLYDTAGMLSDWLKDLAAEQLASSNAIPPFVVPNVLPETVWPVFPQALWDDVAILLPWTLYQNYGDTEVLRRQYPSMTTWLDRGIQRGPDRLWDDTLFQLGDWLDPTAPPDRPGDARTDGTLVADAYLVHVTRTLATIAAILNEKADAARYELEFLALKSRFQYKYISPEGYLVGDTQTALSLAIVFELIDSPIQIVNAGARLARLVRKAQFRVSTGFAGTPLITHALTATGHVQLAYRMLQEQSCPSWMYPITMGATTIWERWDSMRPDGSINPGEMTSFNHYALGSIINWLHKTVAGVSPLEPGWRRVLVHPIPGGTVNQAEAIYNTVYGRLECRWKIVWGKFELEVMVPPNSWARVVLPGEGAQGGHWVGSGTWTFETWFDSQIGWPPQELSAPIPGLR
Description: as §1, with “After centrifugation (600 g; 10 min), 0.035 mL of the resulting reaction mixture were added to 2.1 mL of the Glucose CII-test Wako (Wako Pure Chemical Ind., Osaka, Japan).” left out, “The reaction mixture (0.2 mL) contained 2 mM of the substrate and the appropriate amount of enzyme. The reaction was stopped by adding 0.4 mL of 400 mM Na2CO3.” left out

Test [7] deals with T5, α,α-Trehalase (porcine kidney) (Sus scrofa, UniProt I3LIR5).
T5 construct: purchased Sigma-Aldrich Co; host or cells: porcine kidney
T5 sequence (I3LIR5 24-583): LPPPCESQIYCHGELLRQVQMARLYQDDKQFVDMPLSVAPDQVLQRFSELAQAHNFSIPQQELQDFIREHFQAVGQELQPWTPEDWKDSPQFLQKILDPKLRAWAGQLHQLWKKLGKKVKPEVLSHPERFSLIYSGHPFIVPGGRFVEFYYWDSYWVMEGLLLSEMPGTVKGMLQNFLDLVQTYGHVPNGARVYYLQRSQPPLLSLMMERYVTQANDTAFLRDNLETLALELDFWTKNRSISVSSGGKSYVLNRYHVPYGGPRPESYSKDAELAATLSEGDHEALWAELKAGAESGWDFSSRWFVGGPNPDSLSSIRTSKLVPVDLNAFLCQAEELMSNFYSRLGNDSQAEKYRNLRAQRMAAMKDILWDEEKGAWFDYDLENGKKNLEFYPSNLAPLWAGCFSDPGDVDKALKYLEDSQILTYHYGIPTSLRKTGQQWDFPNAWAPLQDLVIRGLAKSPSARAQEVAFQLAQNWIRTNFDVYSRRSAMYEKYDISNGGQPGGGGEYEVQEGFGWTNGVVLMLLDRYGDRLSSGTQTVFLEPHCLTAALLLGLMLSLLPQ
In words: Glycosidase inhibition: α,α-trehalase (porcine kidney). The following applies: read-out: inhibition % at 1000 μM.
Description: as §1, with “After centrifugation (600 g; 10 min), 0.035 mL of the resulting reaction mixture were added to 2.1 mL of the Glucose CII-test Wako (Wako Pure Chemical Ind., Osaka, Japan).” left out, “The reaction mixture (0.2 mL) contained 2 mM of the substrate and the appropriate amount of enzyme. The reaction was stopped by adding 0.4 mL of 400 mM Na2CO3.” left out

Test [8] addresses T6, Amyloglucosidase (Aspergillus niger, UniProt P69328).
T6 construct: purchased Sigma-Aldrich Co
As to the kind of experiment: Glycosidase inhibition: amyloglucosidase (Aspergillus niger). Conditions: amyloglucosidase, Aspergillus niger; 1000 μM.
Description: as §1

Structures are written as SMILES. Marks after values point to notes of the source that are not given here.

T1 sequence (Q653V7 34-885): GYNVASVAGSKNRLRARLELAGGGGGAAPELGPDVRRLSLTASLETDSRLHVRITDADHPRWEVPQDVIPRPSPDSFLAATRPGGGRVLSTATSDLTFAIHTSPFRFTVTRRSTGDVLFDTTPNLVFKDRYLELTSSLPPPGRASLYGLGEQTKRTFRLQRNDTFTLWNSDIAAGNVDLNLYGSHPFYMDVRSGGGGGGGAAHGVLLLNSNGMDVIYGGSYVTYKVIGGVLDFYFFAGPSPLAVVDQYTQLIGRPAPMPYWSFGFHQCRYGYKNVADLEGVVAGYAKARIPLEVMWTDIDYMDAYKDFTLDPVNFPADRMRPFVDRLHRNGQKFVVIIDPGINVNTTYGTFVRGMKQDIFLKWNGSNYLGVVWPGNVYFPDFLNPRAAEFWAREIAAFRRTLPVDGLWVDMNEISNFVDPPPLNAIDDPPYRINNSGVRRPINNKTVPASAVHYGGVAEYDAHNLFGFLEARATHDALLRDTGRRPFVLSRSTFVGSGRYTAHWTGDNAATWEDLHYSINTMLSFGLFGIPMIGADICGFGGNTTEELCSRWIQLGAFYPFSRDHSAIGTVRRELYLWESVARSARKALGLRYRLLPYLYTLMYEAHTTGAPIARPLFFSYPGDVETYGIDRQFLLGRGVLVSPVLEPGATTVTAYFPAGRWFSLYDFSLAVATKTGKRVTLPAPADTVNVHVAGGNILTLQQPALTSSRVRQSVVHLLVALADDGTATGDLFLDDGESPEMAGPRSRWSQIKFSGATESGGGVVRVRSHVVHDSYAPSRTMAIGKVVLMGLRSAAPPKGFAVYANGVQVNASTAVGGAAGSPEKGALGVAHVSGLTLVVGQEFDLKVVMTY
T6 sequence (P69328 25-640): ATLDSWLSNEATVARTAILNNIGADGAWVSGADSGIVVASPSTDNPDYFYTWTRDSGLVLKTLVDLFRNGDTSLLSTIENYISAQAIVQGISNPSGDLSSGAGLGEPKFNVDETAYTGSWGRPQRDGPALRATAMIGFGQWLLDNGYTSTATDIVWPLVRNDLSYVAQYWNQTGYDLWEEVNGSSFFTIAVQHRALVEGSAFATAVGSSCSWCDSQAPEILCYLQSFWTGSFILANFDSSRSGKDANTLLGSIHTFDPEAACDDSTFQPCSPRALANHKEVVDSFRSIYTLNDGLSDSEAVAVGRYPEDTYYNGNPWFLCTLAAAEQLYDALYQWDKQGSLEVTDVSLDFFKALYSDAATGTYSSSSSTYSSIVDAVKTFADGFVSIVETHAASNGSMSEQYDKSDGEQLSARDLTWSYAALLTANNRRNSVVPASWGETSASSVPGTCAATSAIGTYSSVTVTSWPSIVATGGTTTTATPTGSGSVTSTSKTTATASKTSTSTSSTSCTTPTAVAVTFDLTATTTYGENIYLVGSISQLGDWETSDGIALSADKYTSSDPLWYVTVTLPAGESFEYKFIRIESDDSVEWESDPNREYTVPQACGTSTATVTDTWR
T3 sequence (Q42656 16-378): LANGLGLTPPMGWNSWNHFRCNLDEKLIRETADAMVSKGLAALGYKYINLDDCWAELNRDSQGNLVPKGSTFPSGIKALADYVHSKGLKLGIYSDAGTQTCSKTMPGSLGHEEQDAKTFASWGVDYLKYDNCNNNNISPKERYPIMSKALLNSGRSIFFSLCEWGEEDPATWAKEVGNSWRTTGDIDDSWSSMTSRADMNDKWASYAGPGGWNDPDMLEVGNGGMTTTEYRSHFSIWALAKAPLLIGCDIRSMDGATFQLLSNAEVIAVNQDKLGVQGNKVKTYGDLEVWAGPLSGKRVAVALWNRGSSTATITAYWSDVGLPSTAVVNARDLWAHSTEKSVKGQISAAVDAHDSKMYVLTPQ

What is called inhibition is the change of the read-out against control, counted positive when it falls. On to `CC[C@H]1CN[C@H]2C[C@@H](O)[C@H](O)[C@@H](O)[C@H]12` [Compound 13, (3R,3aR,4S,5S,6R,7aS)-3-ethyloctahydro-1H-indole-4,5,6-triol], for which the inhibition at 1000 µM in test [1] is 0%; in test [3], 21.7%; in test [4], 0%; in test [5], 12.9%; in test [6], 0%; in test [7], 0%. For the same compound, the inhibition at 1000 µM in test [8] worked out at 0%. In addition, in test [2], the “inhibition % at 1000 μM” value is 5% ^a.
With `CC[C@@H]1CN[C@H]2C[C@@H](O)[C@H](O)[C@@H](O)[C@H]12` [Compound 10, (3S,3aR,4S,5S,6R,7aS)-3-Ethyloctahydro-1H-indole-4,5,6-triol], the inhibition at 1000 µM was 0% in test [1]; 0% in test [3]; 15.9% in test [4]; 7.5% in test [5]; 0% in test [6]; 0% in test [7]. Besides, the inhibition at 1000 µM in test [8] came out at 0%. For the same compound, in test [2], the “inhibition % at 1000 μM” value amounted to 12% ^a.
